{"source": "patent US20090148445A1", "about": "“METHODS OF SENSITIZING CANCER TO THERAPY-INDUCED CYTOTOXICITY” (The Regents of the University of California, priority 2005, published 2009)", "key": {"[1]": {"system": "rituximab resistant Daudi RR1 cell line", "assay": "Sensitization to CDDP-induced apoptosis, propidium iodide flow cytometry, Daudi RR1", "type": "cell-based", "conditions": "for potentiation of apoptosis in combination with CDDP: inhibitor 1 h", "experimental": "The rituximab resistant clone Daudi-RR1 was treated as in FIG. 1 above.\nFIG. 4A compares the effect of Salinosporamide A and bortezomib on CDDP-induced apoptosis in Daudi RR1 cells.\nFIG. 4B compares the effect of Salinosporamide A and DHMEQ on CDDP-induced apoptosis in Daudi RR1 cells.\nRituximab (chimeric anti-CD20 monoclonal antibody) has been used in the treatment of Non-Hodgkin's Lymphoma alone or in combination with chemotherapy. The clinical response has been very encouraging; however, some patients are initially unresponsive or develop resistance following treatment. In order to investigate the mechanism of rituximab resistance we have developed in our laboratory rituximab resistant clones from B-NHL cell lines. We have selected certain clones for further analysis of the underlying mechanism of resistance. […] We investigated whether Salinosporamide A can sensitize Daudi RR1 to CDDP-induced apoptosis.\nSimilar studies were performed as above in a) with Daudi RR1 cells."}, "[2]": {"system": "rituximab sensitive and rituximab resistant B-NHL tumor cells", "assay": "Sensitization of B-NHL tumor cells to drug-induced apoptosis (conclusions)", "type": "cell-based", "experimental": "1) Salinosporamide A at very low concentrations (0.1-10 nM) sensitizes both rituximab sensitive and rituximab resistant B-NHL tumor cells to drug-induced apoptosis."}, "[3]": {"system": "B-NHL Daudi cell line (wild type)", "assay": "Sensitization to CDDP-induced apoptosis, propidium iodide flow cytometry, Daudi", "conditions": "for apoptosis by combination treatment with CDDP: inhibitor 1-15 nM 1 h"}, "[4]": {"system": "pleiotrophin (PTN)", "assay": "Pleiotrophin (PTN) expression", "type": "cell-based", "conditions": "5 nM", "description": "PTN has been reported to be elevated in tumor cells and in the circulation of cancer patients and is of prognostic significance. In addition, inhibition of PTN contributes to the sensitizing effect of Salinosporamide A. PTN is also a target for therapeutic intervention."}, "[5]": {"system": "multiple myeloma cells", "conditions": "multiple myeloma cells resistant to conventional and bortezomib therapies; cited from earlier work"}, "[6]": {"system": "DR5", "assay": "DR5 expression, rituximab resistant Ramos RR1", "type": "cell-based", "conditions": "rituximab resistant Ramos cells RR1"}, "[7]": {"system": "Raf-kinase inhibitor protein (RKIP)", "assay": "RKIP expression by western blot in Ramos cells", "type": "cell-based", "experimental": "Ramos cells were treated with 10 nM Salinosporamide A for various periods of time, and total cell lysates were examined for the expression of RKIP by western blot analysis. The expression of β-actin was used as a control.\nRKIP is a member of the phosphotidylethanolamine-binding protein (PEBP) family. Ramos cells were treated with 10 nM Salinosporamide A for various periods of time, and total cell lysates were examined for the expression of RKIP by western blot analysis. The expression of β-actin was used as a control."}, "[8]": {"system": "Salinosporamide A resistant Daudi cells", "assay": "Rituximab-mediated sensitization to Salinosporamide A-induced apoptosis, Daudi", "type": "cell-based", "conditions": "rituximab 20 ug/ml 1 h, then Salinosporamide A 10 nM 20 h"}, "[9]": {"system": "B-NHL Ramos cell line", "assay": "Sensitization to CDDP-induced apoptosis, propidium iodide flow cytometry, Ramos", "experimental": "The percent apoptotic cells was recorded. […] The treatment were performed in duplicates."}, "[10]": {"system": "caspase 9", "assay": "Caspase 9 activation by western (pro-caspase 9 level) in Ramos cells", "type": "cell-based"}, "[11]": {"system": "HL60MX2", "conditions": "drug resistant HL60MX2; equal doses as for HL60; cited from earlier work"}, "[12]": {"system": "DR5", "assay": "DR5 surface expression by flow cytometry, Ramos", "type": "cell-based"}, "[13]": {"system": "DR5", "assay": "DR5 expression by Western, Ramos", "type": "cell-based"}, "[14]": {"system": "YY1", "assay": "YY1 transcription by RT-PCR", "type": "cell-based", "description": "(§1) The expression of β-actin was used as a control."}, "[15]": {"system": "60 human tumor cell lines", "conditions": "NCI screening panels of 60 human tumor cell lines; cited from earlier work"}, "[16]": {"system": "YY1", "assay": "YY1 expression by western blot in Ramos cells", "type": "cell-based", "conditions": "various concentrations, 24 hour exposure", "description": "as §1, §1"}, "[17]": {"system": "PTEN", "assay": "PTEN expression by western", "type": "cell-based", "conditions": "FIG. 15", "description": "Further, most resistant tumor cells express low levels of PTEN, and PTEN is a target for therapeutic intervention, as well as a biomarker"}, "[18]": {"system": "TRAIL-resistant Ramos cells", "assay": "Sensitization to TRAIL-induced apoptosis", "type": "cell-based"}, "[19]": {"system": "HL60", "conditions": "drug sensitive HL60; equal doses as for HL60MX2; cited from earlier work"}, "[20]": {"system": "Bcl-xL", "assay": "Bcl-xL expression by western", "type": "cell-based", "experimental": "Bcl-xL expression was assessed by western."}, "[21]": {"conditions": "administered orally or intravenously; cited from earlier work"}, "[22]": {"system": "Ramos B-NHL cells"}, "[23]": {"conditions": "DHMEQ (μM) or Salinosporamide A (nM) 1 h, then CDDP 10 μg/ml 20 h"}, "[24]": {"conditions": "inhibitor 1 h, then CDDP 15 μg/ml 20 h"}, "[25]": {"conditions": "Daudi wild type, then CDDP 10 μg/ml 20 h"}}, "note": "Like-named read-outs stand apart in the source and are kept apart here.", "data": [{"compound": "O=C(NC1=CC(=O)[C@H]2O[C@H]2[C@H]1O)c1ccccc1O", "note": "[DHMEQ, reference compound]", "values": [{"measurement": "higher concentration used with DHMEQ as compared to Salinosporamide A for similar sensitization", "setting": "[1]; CDDP 10 μg/ml", "value": "4,000 fold"}, {"measurement": "sensitization to CDDP-induced apoptosis", "setting": "[1]; [23]", "value": "sensitize cells to CDDP-induced apoptosis"}, {"measurement": "increase in concentration required for sensitization as compared to Salinosporamide A", "setting": "[2]; B-NHL tumor cells, drug-induced apoptosis", "value": "4,000 fold"}, {"measurement": "higher concentration used with DHMEQ as compared to Salinosporamide A for similar sensitization", "setting": "[3]; Daudi wild type, CDDP 10 μg/ml", "value": "4,000 fold"}, {"measurement": "sensitization to CDDP-induced apoptosis", "setting": "[3]; Daudi, DHMEQ 1-65 μM 1 h, then CDDP 10 μg/ml 20 h", "value": "can sensitize Daudi cells to CDDP-induced apoptosis"}]}, {"compound": "C[C@@]12OC(=O)[C@]1([C@@H](O)[C@@H]1C=CCCC1)NC(=O)[C@@H]2CCCl", "note": "[Salinosporamide A]", "values": [{"measurement": "sensitization to CDDP-induced apoptosis", "setting": "[1]; [23]", "value": "sensitize cells to CDDP-induced apoptosis"}, {"measurement": "potentiation of apoptosis in combination with CDDP", "setting": "[1]; then CDDP 10 μg/ml 20 h", "value": "significant potentiation of apoptosis"}, {"measurement": "sensitization to CDDP-induced apoptosis", "setting": "[1]; treated as Ramos, function of concentration", "value": "significantly sensitized"}, {"measurement": "concentrations that sensitize to drug-induced apoptosis", "setting": "[2]; rituximab sensitive and rituximab resistant B-NHL tumor cells", "value": "0.1 to 10", "unit": "nM"}, {"measurement": "pleiotrophin (PTN) expression", "setting": "[4]", "value": "inhibits the growth factor pleiotrophin (PTN) expression significantly"}, {"measurement": "induction of apoptosis", "setting": "[5]", "value": "induces apoptosis"}, {"measurement": "DR5 expression", "setting": "[6]", "value": "upregulates DR5 expression"}, {"measurement": "levels of RKIP protein", "setting": "[7]; Ramos, 10 nM, 15 minute exposure", "value": "increase in the levels of RKIP protein"}, {"measurement": "RKIP expression", "setting": "[7]; Salinosporamide A alone, FIG. 15", "value": "induces the expression"}, {"measurement": "RKIP expression in combination with rituximab", "setting": "[7]; combination with rituximab, FIG. 15", "value": "more was expressed"}, {"measurement": "apoptosis by combination of rituximab and Salinosporamide A", "setting": "[8]", "value": "significant apoptosis and synergy was achieved"}, {"measurement": "cytotoxicity of Salinosporamide A treatment alone", "setting": "[9]; 1 and 10 nM, no CDDP", "value": "modest cytotoxicity"}, {"measurement": "concentration at which potentiation of cytotoxicity was mostly observed (significant synergistic cytotoxicity)", "setting": "[9]; [24]", "value": 0.1, "unit": "nM"}, {"measurement": "cytotoxicity of combination treatment with CDDP", "setting": "[9]; [24]", "value": "significant potentiation of cytotoxicity"}, {"measurement": "caspase 9 activation", "setting": "[10]; Salinosporamide A alone", "value": "activates caspase 9"}, {"measurement": "caspase 9 activation in combination with CDDP", "setting": "[10]; combination with CDDP", "value": "more caspase 9 was activated"}, {"measurement": "apoptosis by combination treatment with CDDP", "setting": "[3]; [25]", "value": "significant apoptosis by the combination treatment at all concentrations of inhibitors used"}, {"measurement": "cytotoxicity of combination treatment with CDDP", "setting": "[3]; Daudi, treated as Ramos, function of concentration", "value": "significant cytotoxicity was observed"}, {"measurement": "cytotoxicity", "setting": "[11]", "value": "cytotoxic"}, {"measurement": "DR5 surface expression", "setting": "[12]", "value": "upregulated DR5 surface expression"}, {"measurement": "DR5 expression", "setting": "[13]", "value": "upregulates DR5 expression"}, {"measurement": "YY1 transcription", "setting": "[14]", "value": "inhibits YY1 transcription"}, {"measurement": "mean growth inhibition", "setting": "[15]", "value": "less than 10 nM"}, {"measurement": "levels of YY1 protein", "setting": "[16]", "value": "decrease in the levels of YY1 protein"}, {"measurement": "PTEN expression", "setting": "[17]; Salinosporamide A alone", "value": "induces the expression"}, {"measurement": "PTEN expression in combination with rituximab", "setting": "[17]; combination with rituximab", "value": "more was expressed"}, {"measurement": "sensitization to TRAIL-induced apoptosis", "setting": "[18]", "value": "sensitizes TRAIL-resistant Ramos cells to TRAIL-induced apoptosis"}, {"measurement": "cytotoxicity", "setting": "[19]", "value": "cytotoxic"}, {"measurement": "concentration inhibiting Bcl-xL expression", "setting": "[20]", "value": "< 2.5", "unit": "nM"}, {"measurement": "anti-tumor effects in vivo", "setting": "[21]", "value": "exerted anti-tumor effects"}, {"measurement": "cytotoxic effects of sole treatment", "setting": "[22]; Ramos, no rituximab, 0.1, 1.0, 10 nM overnight", "value": "no detectable cytotoxic effects"}, {"measurement": "apoptosis by combination treatment with rituximab", "setting": "[22]; Ramos, rituximab 20 ug/ml 12-18 h, then Salinosporamide A 1-10 nM 20 h", "value": "significant apoptosis"}, {"measurement": "rituximab sensitization to Salinosporamide A-induced apoptosis compared with ADR", "setting": "[22]; Ramos, rituximab 20 μg/ml 18 h, ADR 5 μg/ml", "value": "greater than that achieved with ADR"}, {"measurement": "apoptosis in rituximab pre-treated tumor cells", "setting": "[22]; Ramos, rituximab 20 μg/ml 18 h, Salinosporamide A 1 nM", "value": "significant apoptosis"}, {"measurement": "apoptosis in rituximab pre-treated tumor cells", "setting": "[22]; Ramos, rituximab 20 μg/ml 18 h, Salinosporamide A 10 nM", "value": "less effective due to cell loss"}, {"measurement": "concentration at which synergistic activity with rituximab was detected", "setting": "[22]; Ramos, rituximab 20 ug/ml pre-treatment", "value": ">= 1 nM"}, {"measurement": "rituximab sensitization to Salinosporamide A-induced apoptosis compared with CDDP", "setting": "[22]; rituximab-mediated chemosensitization, FIG. 6", "value": "higher level than CDDP"}]}, {"compound": "CC(C)C[C@H](NC(=O)[C@H](Cc1ccccc1)NC(=O)c1cnccn1)B(O)O", "note": "[bortezomib, reference compound]", "values": [{"measurement": "potentiation of apoptosis in combination with CDDP", "setting": "[1]; then CDDP 10 μg/ml 20 h", "value": "significant potentiation of apoptosis"}, {"measurement": "apoptosis by combination treatment with CDDP", "setting": "[3]; [25]", "value": "significant apoptosis by the combination treatment at all concentrations of inhibitors used"}]}, {"compound": "rituximab [reference compound]", "values": [{"measurement": "sensitization of tumor cells to Salinosporamide A-induced apoptosis", "setting": "[22]; rituximab 20 ug/ml pre-treatment", "value": "can sensitize drug-resistant tumor cells to Salinosporamide A induced apoptosis"}]}]}
